Series [1] has as its system Rattus norvegicus. The experiment in a line: Animals with Ulcers in Carrageenan-induced paw edema test at a dose of 100 mg/kg perorally in rats. The series is classed as functional. The conditions noted are these: route oral. A general note: The carrageenan paw model is a standard test of acute inflammation.
Series [2] relates to Rattus norvegicus. The experiment in a line: Percent Edema variation in Carrageenan-induced paw edema test at a dose of 100 mg/kg perorally in rats after 180 min (p<0.001). The series is classed as functional. As to conditions: route oral.
The test system of series [3] is Rattus norvegicus. The experiment in a line: Reaction time in Hot plate test at a dose of 100 mg/kg perorally in rats after 180 min (p<0.05). The series is classed as functional. The conditions noted are these: route oral. On the technique in general: Hot-plate and tail-flick tests time the reaction to a heat stimulus.
Series [4] has as its system Rattus norvegicus. The experiment in a line: Percent Edema variation in Carrageenan-induced paw edema test at a dose of 100 mg/kg perorally in rats after 60 min (p<0.001). As to conditions: route oral. It is filed as functional.
The test system of series [5] is Rattus norvegicus. The experiment in a line: Percent Edema variation in Carrageenan-induced paw edema test at a dose of 100 mg/kg perorally in rats after 120 min (p<0.001). It is filed as functional. The conditions noted are these: route oral.
Series [6] can be described thus: Peroral dose causing 50% death of the mice population. The series is classed as ADME, organism-based. The conditions noted are these: mouse, in vivo, po.
The test system of series [7] is Rattus norvegicus. The experiment in a line: Reaction time in Hot plate test at a dose of 100 mg/kg perorally in rats after 120 min (p<0.05). It is filed as functional. The conditions noted are these: route oral.
Series [8] can be described thus: Minimum concentration which causes 50% of the Artemia salina larvae to lose mobility. The series is classed as ADME, organism-based. The conditions noted are these: in vivo.
Series [9] concerns Rattus norvegicus. The experiment in a line: Analgesic activity was determined using acetic acid writing test at a dose of 100 mg/kg perorally in rats. The series is classed as functional. The conditions noted are these: route oral.
The subject of series [10] is Rattus norvegicus. The experiment in a line: Number of writhings in Acetic acid Writhing test at a dose of 100 mg/kg perorally in rats. The series is classed as functional. As to conditions: route oral. For orientation: In writhing tests, fewer writhes than in controls are read as antinociception.
Series [11] relates to Rattus norvegicus. The experiment in a line: Animals with Hyperemia in Carrageenan-induced paw edema test at a dose of 100 mg/kg perorally in rats. The series is classed as functional. As to conditions: route oral.
Series [12] deals with Rattus norvegicus. The experiment in a line: Reaction time in Hot plate test at a dose of 100 mg/kg perorally in rats after 60 min (p<0.05). As to conditions: route oral. It is filed as functional.
For series [13], the system named is Rattus norvegicus. The experiment in a line: Reaction time in Hot plate test at a dose of 100 mg/kg perorally in rats after 120 min. The series is classed as functional. As to conditions: route oral.
Series [14] relates to Rattus norvegicus. The experiment in a line: Percent Edema variation in Carrageenan-induced paw edema test at a dose of 100 mg/kg perorally in rats after 120 min. It is filed as functional. As to conditions: route oral.
Series [15] has as its system Rattus norvegicus. The experiment in a line: Reaction time in Hot plate test at a dose of 100 mg/kg perorally in rats after 60 min. The series is classed as functional. The conditions noted are these: route oral.
Series [16] relates to Rattus norvegicus. The experiment in a line: Animals with Ulcers in Carrageenan-induced paw edema test at a dose of 50 mg/kg perorally in rats. As to conditions: route oral. It is filed as functional.
Series [17] deals with Rattus norvegicus. The experiment in a line: Percent Edema variation in Carrageenan-induced paw edema test at a dose of 50 mg/kg perorally in rats after 120 min. The series is classed as functional. The conditions noted are these: route oral.
Series [18] concerns Rattus norvegicus. The experiment in a line: Percent Edema variation in Carrageenan-induced paw edema test at a dose of 100 mg/kg perorally in rats after 180 min. The conditions noted are these: route oral. It is filed as functional.
The subject of series [19] is Rattus norvegicus. The experiment in a line: Animals with Hyperemia in Carrageenan-induced paw edema test at a dose of 50 mg/kg perorally in rats. It is filed as functional. As to conditions: route oral.
The test system of series [20] is Rattus norvegicus. The experiment in a line: Percent Edema variation in Carrageenan-induced paw edema test at a dose of 50 mg/kg perorally in rats after 180 min. The series is classed as functional. The conditions noted are these: route oral.
Series [21] has as its system Rattus norvegicus. The experiment in a line: Reaction time in Hot plate test at a dose of 100 mg/kg perorally in rats after 180 min. The series is classed as functional. As to conditions: route oral.
Series [22] concerns Rattus norvegicus. The experiment in a line: Percent Edema variation in Carrageenan-induced paw edema test at a dose of 50 mg/kg perorally in rats after 60 min (p<0.01). The series is classed as functional. As to conditions: route oral.
The subject of series [23] is Rattus norvegicus. The experiment in a line: Percent Edema variation in Carrageenan-induced paw edema test at a dose of 100 mg/kg perorally in rats after 60 min. The series is classed as functional. The conditions noted are these: route oral.
For series [24], the system named is Rattus norvegicus. The experiment in a line: Reaction time in Hot plate test at a dose of 100 mg/kg perorally in rats after 60 min (p<0.01). The series is classed as functional. The conditions noted are these: route oral.
Series [25] concerns Rattus norvegicus. The experiment in a line: Reaction time in Hot plate test at a dose of 100 mg/kg perorally in rats after 120 min (p<0.01). It is filed as functional. As to conditions: route oral.
In series [26] the test system is Rattus norvegicus. The experiment in a line: Percent Edema variation in Carrageenan-induced paw edema test at a dose of 100 mg/kg perorally in rats after 120 min (p<0.05). It is filed as functional. As to conditions: route oral.
The test system of series [27] is Rattus norvegicus. The experiment in a line: Analgesic activity was determined using acetic acid writing test at a dose of 100 mg/kg perorally in rats. (p<0.01). It is filed as functional. As to conditions: route oral.
In series [28] the test system is Rattus norvegicus. The experiment in a line: Analgesic activity was determined using acetic acid writing test at a dose of 100 mg/kg perorally in rats.(p<0.05). The conditions noted are these: route oral. It is filed as functional.
Series [29] deals with Rattus norvegicus. The experiment in a line: Percent Edema variation in Carrageenan-induced paw edema test at a dose of 5 mg/kg perorally in rats after 180 min (p<0.01). It is filed as functional. As to conditions: route oral.
The test system of series [30] is Rattus norvegicus. The experiment in a line: Reaction time in Hot plate test at a dose of 5 mg/kg perorally in rats after 60 min (p<0.01). The series is classed as functional. As to conditions: route oral.
Series [31] concerns Rattus norvegicus. The experiment in a line: Analgesic activity was determined using acetic acid writing test at a dose of 5 mg/kg perorally in rats. (p<0.01). The conditions noted are these: route oral. The series is classed as functional.
In series [32] the test system is Rattus norvegicus. The experiment in a line: Reaction time in Hot plate test at a dose of 5 mg/kg perorally in rats after 120 min (p<0.01). It is filed as functional. As to conditions: route oral.
In series [33] the test system is Rattus norvegicus. The experiment in a line: Number of writhings in Acetic acid Writhing test at a dose of 5 mg/kg perorally in rats. The series is classed as functional. The conditions noted are these: route oral.
Series [34] relates to Rattus norvegicus. The experiment in a line: Percent Edema variation in Carrageenan-induced paw edema test at a dose of 5 mg/kg perorally in rats after 120 min. It is filed as functional. As to conditions: route oral.
Series [35] deals with Rattus norvegicus. The experiment in a line: Animals with Ulcers in Carrageenan-induced paw edema test at a dose of 5 mg/kg perorally in rats. The series is classed as functional. As to conditions: route oral.
The subject of series [36] is Rattus norvegicus. The experiment in a line: Percent Edema variation in Carrageenan-induced paw edema test at a dose of 5 mg/kg perorally in rats after 60 min. It is filed as functional. The conditions noted are these: route oral.
Series [37] concerns Rattus norvegicus. The experiment in a line: Animals with Hyperemia in Carrageenan-induced paw edema test at a dose of 5 mg/kg perorally in rats. The series is classed as functional. As to conditions: route oral.
In series [38] the test system is Rattus norvegicus. The experiment in a line: Reaction time in Hot plate test at a dose of 5 mg/kg perorally in rats after 180 min (p<0.01). It is filed as functional. The conditions noted are these: route oral.

Some results are limits rather than exact numbers.

As a reminder, the LD50 is the dose at which mortality reaches 50%. Low values mean a more toxic substance, high ones a less toxic substance. As a reminder, the LC50 is the concentration that kills 50% of the test population. Low readings indicate greater toxicity, high ones lower toxicity. As a reminder, the inhibition in vivo is the share of the control response that was lost under treatment. Read a low inhibition in vivo as a response near the control.

On to `O=C1CS[C@H](c2cccc([N+](=O)[O-])c2)N1CCN1C(=O)CS[C@H]1c1cccc([N+](=O)[O-])c1`, for which the figures for the Animals in [1] and in series [11] were 0% and 40%, respectively. Also, the Edema variation in series [2] is on record as 21.11%; in series [4], -83.3%; in series [5] it was -67.3%. The values for the Reaction time in [3], in [7] and in [12] were 22 s, 19.4 s and 17.1 s, respectively. Moreover, in series [6], the 50% lethal dose (LD50) is above 1000 mg/kg. Moreover, the LC50 in series [8] is above 1000 µg/mL. In series [9], the inhibition in vivo at 100 mg/kg turned out to be 13%. Further, the No. of writhings in [10] is 17.8.
For the compound `COc1cccc([C@H]2SCC(=O)N2CCN2C(=O)CS[C@H]2c2cccc(OC)c2)c1`, the Animals in series [1] is given as 0%; in [16], 0%; in [19], 20%; in series [11], 20%. Moreover, the Reaction time was found to be 12 s in series [13], 12.1 s in [15] and 10.7 s in series [21]. The Edema variation in series [14] is given as -12.7%; in series [4], -65.3%; in series [17] it was -8.15%; in series [18], 20.1%; in series [20] it was 29.59%; in series [22], -38.29%. Further, the LD50 in series [6] was above 1000 mg/kg. In series [8], this compound came in with a median lethal concentration (LC50) above 1000 µg/mL. In series [9], this compound registered an inhibition in vivo at 100 mg/kg of 60%. In series [10], this compound gave a No. of writhings of 8.1.
`COc1ccc(C2SCC(=O)N2CCN2C(=O)CSC2c2ccc(OC)c(OC)c2)cc1OC` (centres undefined): the figures for the Edema variation in series [23], in [2] and in [26] were -2.13%, -76.62% and -30.13%, respectively. For the same compound, the Animals is reported as 0% in series [1] and 20% in series [11]. In addition, the Reaction time in [24] was 30.4 s; in [3] it was 16.8 s; in series [25], 26.7 s. The compound further yielded an LD50 in series [6] above 1000 mg/kg. Further, the inhibition in vivo at 100 mg/kg in series [27] was 53%. The compound further had an LC50 in [8] above 1000 µg/mL. Further, the No. of writhings in [10] is on record as 9.6.
As for `O=C1CSC(c2ccc(Cl)c(Cl)c2)N1CCN1C(=O)CSC1c1ccc(Cl)c(Cl)c1` (centres undefined), the Edema variation in series [23] is recorded as 14.04%; in series [26], -31.41%; in [18] it was -27.48%. The figures for the Animals in [1] and in [11] were 0% and 40%, respectively. The same compound yielded an inhibition in vivo at 100 mg/kg in series [28] of 24%. In addition, the Reaction time in series [3] stood at 19.8 s; in series [7], 18.4 s; in [12], 20 s. This compound also showed a 50% lethal dose (LD50) in series [6] above 1000 mg/kg. In series [8], the LC50 was above 1000 µg/mL. Further, the No. of writhings in [10] is 15.2.
For `COc1ccc2c(c1)c(CC(=O)O)c(C)n2C(=O)c1ccc(Cl)cc1` [INDOMETHACIN], the Edema variation in series [29] is on record as -50.86%; in [34], -10.85%; in series [36], -15.4%. The Reaction time in series [30] is 26.1 s; in series [32], 27.1 s; in series [38], 28 s. Moreover, at 5 mg/kg the inhibition in vivo in series [31] was 80%. The No. of writhings in series [33] is 4. The compound also had a 50% lethal dose (LD50) in series [6] of 15 mg/kg. Moreover, the Animals in series [35] stood at 80%; in series [37], 100%.

The values are drawn from ChEMBL document CHEMBL1133821, “Synthesis and antiinflammatory, analgesic activity of 3,3'-(1,2-ethanediyl)-bis[2-aryl-4-thiazolidinone] chiral compounds. Part 10” (Bioorg Med Chem Lett, 2001).
